The record followed here is patent publication US20240132431A1, “METHOD FOR ALKYLATING ACIDIC FUNCTIONAL GROUP” (Chugai Seiyaku Kabushiki Kaisha, priority 2021, published 2024).

For this assay, the target named is T1, Bcl-2 protein (Recombinant Human Bcl-2 Protein) (Homo sapiens, UniProt P10415).
T1 construct: purchased Novus NBP2-34889
The assay can be described thus: Binding evaluation of mixture library compounds to Bcl-2 using AS-MS (affinity selection mass spectrometry). The settings on record: for ASMS ratio (%) n = 1: replicate n = 1; for ASMS ratio (%) n = 1 / ASMS ratio (%) n = 2: ASMS Ratio(%)=(A−C)/B×100; for ASMS ratio (%) n = 2: replicate n = 2. Put shortly:
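Bcl-2 binding is scored from LC/MS signal retained with protein through gel-filtration spin columns, normalised to unfiltered and protein-free controls. Incubation: 20 μM protein, […] per compound, 1 h, 23° C.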

Setting [1] is: AS-MS on the mixture of 1200 library compounds.
[2] abbreviates: AS-MS, mixture of 1200 compounds, Bcl-2.

T1 sequence (P10415 whole entry): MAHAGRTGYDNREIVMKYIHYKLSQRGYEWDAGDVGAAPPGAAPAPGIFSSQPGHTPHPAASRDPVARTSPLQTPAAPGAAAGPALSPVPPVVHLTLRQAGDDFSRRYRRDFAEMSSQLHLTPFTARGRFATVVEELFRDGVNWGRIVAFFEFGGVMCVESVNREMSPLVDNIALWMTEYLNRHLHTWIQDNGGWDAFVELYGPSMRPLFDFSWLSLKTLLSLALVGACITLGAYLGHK

In the case of `CCOc1cncc(-c2ccccc2CCC(=O)N2CCN(c3ccc(C(=O)NS(C)(=O)=O)nn3)CC2)c1` [B2I012-01, 6-[4-[3-[2-(5-Ethoxypyridin-3-yl)phenyl]propanoyl]piperazin-1-yl]-N-methylsulfonylpyridazine-3-carboxamide], where the note is “AS-MS, mixture library, Bcl-2”, the “ASMS ratio (%) n = 1” value was −4.0% and the “ASMS ratio (%) n = 2” value is −0.2%. The like results for `CCOc1cccc(-c2ccc(CN3CCN(c4ccc(C(=O)N(CC)CC)nn4)CC3)cc2C)c1` [B4J073-01, 6-[4-[[4-(3-Ethoxyphenyl)-3-methylphenyl]methyl]piperazin-1-yl]-N,N-diethylpyridazine-3-carboxamide] were, in that order, 2.1% and 0.0%.

As to “6-[4-[2-[2-(5-Ethoxypyridin-3-yl)ethynyl]benzoyl]piperazin-1-yl]-N-propylpyridazine-3-carboxamide [B1M096-01]”, the “ASMS ratio (%) n = 2” value under setting [1] came to 0.0%. For the molecule `CCOc1cncc(-c2ccccc2CCC(=O)N2CCN(c3ccc(C(=O)NS(C)(=O)=O)cc3)CC2)c1` [B2I034-01, 4-[4-[3-[2-(5-Ethoxypyridin-3-yl)phenyl]propanoyl]piperazin-1-yl]-N-methylsulfonylbenzamide], under “AS-MS, mixture library, Bcl-2”, the “ASMS ratio (%) n = 1” value is on record as 0.0% and the “ASMS ratio (%) n = 2” value was determined as 1.6%. As for `CCOc1cccc(-c2cc(OC)c(CN3CCN(c4ccc(C(=O)N(C)CC56CC7CC(CC(C7)C5)C6)cc4)CC3)c(OC)c2)c1` [B3A059-01, N-(1-Adamantylmethyl)-4-[4-[[4-(3-ethoxyphenyl)-2,6-dimethoxyphenyl]methyl]piperazin-1-yl]-N-methylbenzamide], under setting [1], the “ASMS ratio (%) n = 1” value is on record as −1.9% and the “ASMS ratio (%) n = 2” value was −8.0%. For the molecule `CCOc1cncc(-c2ccc(CN3CCN(c4ccc(C(=O)N(CC)CC)nn4)CC3)c(CC)c2)c1` [B4J076-01, 6-[4-[[4-(5-Ethoxypyridin-3-yl)-2-ethylphenyl]methyl]piperazin-1-yl]-N,N-diethylpyridazine-3-carboxamide], for the setting “AS-MS, mixture library, Bcl-2”, the “ASMS ratio (%) n = 1” value turned out to be 0.0% and the “ASMS ratio (%) n = 2” value was 0.0%. In the case of `CCOc1cccc(C#Cc2ccccc2CN2CCN(c3ccc(C(=O)NS(=O)(=O)CCC(F)(F)F)cc3)CC2)c1` [B2N069-01, 4-[4-[[2-[2-(3-Ethoxyphenyl)ethynyl]phenyl]methyl]piperazin-1-yl]-N-(3,3,3-trifluoropropylsulfonyl)benzamide], the “ASMS ratio (%)” value by setting is: (n = 1) −1.8%; (n = 2) −1.5%. For `CCOc1cccc(-c2csc(CN3CCN(c4ccc(C(=O)NS(=O)(=O)CC56CC7CC(CC(C7)C5)C6)nn4)CC3)c2)c1` [B2A093-01, N-(1-Adamantylmethylsulfonyl)-6-[4-[[4-(3-ethoxyphenyl)thiophen-2-yl]methyl]piperazin-1-yl]pyridazine-3-carboxamide], under “AS-MS, mixture library, Bcl-2”, the “ASMS ratio (%) n = 1” value stood at 13.0% and the “ASMS ratio (%) n = 2” value was 0.0%. Consider `CCOc1cccc(-c2ccc(C(=O)N3CCN(c4ccc(C(=O)N(CC)CC)nn4)CC3)cc2F)c1` [B4J005-01, 6-[4-[4-(3-Ethoxyphenyl)-3-fluorobenzoyl]piperazin-1-yl]-N,N-diethylpyridazine-3-carboxamide], for which, under setting [1], the “ASMS ratio (%) n = 1” value is on record as −0.4% and the “ASMS ratio (%) n = 2” value turned out to be 2.1%. As to `CCOc1cccc(-c2ccc(CN3CCN(c4ccc(C(=O)N(CC)CC)nn4)CC3)c(OC)c2)c1` [B4J079-01, 6-[4-[[4-(3-Ethoxyphenyl)-2-methoxyphenyl]methyl]piperazin-1-yl]-N,N-diethylpyridazine-3-carboxamide], for the setting “AS-MS, mixture library, Bcl-2”, the “ASMS ratio (%) n = 1” value worked out at 0.0% and the “ASMS ratio (%) n = 2” value turned out to be 0.0%. As to `CCOc1cccc(-c2ccccc2CCC(=O)N2CCN(c3ccc(C(=O)NS(=O)(=O)c4ccc(NCCSc5ccccc5)c(C(F)(F)F)c4)cc3)CC2)c1` [B2R033-01, 4-[4-[3-[2-(3-Ethoxyphenyl)phenyl]propanoyl]piperazin-1-yl]-N-[4-(2-phenylsulfanylethylamino)-3-(trifluoromethyl)phenyl]sulfonylbenzamide], the “ASMS ratio (%)” value is on record as 3.6% (n = 1) and −6.6% (n = 2).

With `CCOc1cncc(-c2cc(OC)c(CN3CCN(c4ccc(C(=O)NS(=O)(=O)CCC(F)(F)F)nn4)CC3)c(OC)c2)c1` [B2N086-01, 6-[4-[[4-(5-Ethoxypyridin-3-yl)-2,6-dimethoxyphenyl]methyl]piperazin-1-yl]-N-(3,3,3-trifluoropropylsulfonyl)pyridazine-3-carboxamide], the “ASMS ratio (%)” value runs as follows: (n = 1) 0.0%; (n = 2) 0.0%. As to `CCOc1cccc(C#Cc2cncc(C(=O)N3CCN(c4ccc(C(=O)N(C)CC56CC7CC(CC(C7)C5)C6)cc4)CC3)c2)c1` [B3A031-01, N-(1-Adamantylmethyl)-4-[4-[5-[2-(3-ethoxyphenyl)ethynyl]pyridine-3-carbonyl]piperazin-1-yl]-N-methylbenzamide], under setting [1], the “ASMS ratio (%) n = 1” value is 8.4% and the “ASMS ratio (%) n = 2” value is listed as −15.2%. Regarding `CCOc1cccc(-c2ccc(CN3CCN(c4ccc(C(=O)N(C)CC56CC7CC(CC(C7)C5)C6)nn4)CC3)cc2F)c1` [B3A077-01, N-(1-Adamantylmethyl)-6-[4-[[4-(3-ethoxyphenyl)-3-fluorophenyl]methyl]piperazin-1-yl]-N-methylpyridazine-3-carboxamide], under setting [1], the “ASMS ratio (%) n = 1” value is reported as 4.1% and the “ASMS ratio (%) n = 2” value was −2.8%. On to `CCOc1cccc(-c2csc(C(=O)N3CCN(c4ccc(C(=O)NS(=O)(=O)C(C)(C)C)nn4)CC3)c2)c1` [B2L001-01, N-tert-Butylsulfonyl-6-[4-[4-(3-ethoxyphenyl)thiophene-2-carbonyl]piperazin-1-yl]pyridazine-3-carboxamide], for which the “ASMS ratio (%)” value is, setting by setting: (n = 1) −67.5%; (n = 2) 0.0%.

With `CCOc1cncc(-c2ccc(CN3CCN(c4ccc(C(=O)NS(=O)(=O)C(C)(C)C)cc4)CC3)cc2F)c1` [B2L052-01], the “ASMS ratio (%)” value is 2.7% (n = 1) and 1.0% (n = 2). Turning to “4-[4-[3-(5-Ethoxypyridin-3-yl)-5-(trifluoromethyl)benzoyl]piperazin-1-yl]-N-propylbenzamide [B1M008-01]”, the “ASMS ratio (%) n = 2” value under setting [2] is on record as 0.0%. As to “4-[4-[1-[4-(3-Ethoxyphenyl)-2-fluorophenyl]ethyl]piperazin-1-yl]-N-propylbenzamide [B1M005-01]”, under setting [2], the “ASMS ratio (%) n = 1” value is listed as 0.0% and the “ASMS ratio (%) n = 2” value is reported as 1.4%. With `CCOc1cncc(-c2cc(OC)c(CN3CCN(c4ccc(C(=O)NS(=O)(=O)CC56CC7CC(CC(C7)C5)C6)nn4)CC3)c(OC)c2)c1` [B2A086-01, N-(1-Adamantylmethylsulfonyl)-6-[4-[[4-(5-ethoxypyridin-3-yl)-2,6-dimethoxyphenyl]methyl]piperazin-1-yl]pyridazine-3-carboxamide], under “AS-MS, mixture library, Bcl-2”, the “ASMS ratio (%) n = 1” value is 0.0% and the “ASMS ratio (%) n = 2” value was 0.0%. For the molecule `CCOc1cncc(-c2cnn(-c3cc(C(=O)N4CCN(c5ccc(C(=O)NS(=O)(=O)c6ccc(NCCSc7ccccc7)c(C(F)(F)F)c6)cc5)CC4)cc(C(F)(F)F)c3)c2)c1` [B2R044-01, 4-[4-[3-[4-(5-Ethoxypyridin-3-yl)pyrazol-1-yl]-5-(trifluoromethyl)benzoyl]piperazin-1-yl]-N-[4-(2-phenylsulfanylethylamino)-3-(trifluoromethyl)phenyl]sulfonylbenzamide], the “ASMS ratio (%)” value by setting is: (n = 1) −3.7%; (n = 2) −4.1%. Consider “4-[4-[[4-(5-Ethoxypyridin-3-yl)-3-methylphenyl]methyl]piperazin-1-yl]-N-propylbenzamide [B1M064-01]”, for which, under setting [2], the “ASMS ratio (%) n = 1” value was found to be 5.4% and the “ASMS ratio (%) n = 2” value is −4.3%. Consider `CCOc1cncc(-c2csc(CN3CCN(c4ccc(C(=O)N(C)CC56CC7CC(CC(C7)C5)C6)cc4)CC3)c2)c1` [B3A068-01, N-(1-Adamantylmethyl)-4-[4-[[4-(5-ethoxypyridin-3-yl)thiophen-2-yl]methyl]piperazin-1-yl]-N-methylbenzamide], for which, under setting [1], the “ASMS ratio (%) n = 1” value stood at 1.4% and the “ASMS ratio (%) n = 2” value is on record as −3.6%. For the molecule `CCOc1cccc(-c2cc(C(=O)N3CCN(c4ccc(C(=O)NS(=O)(=O)CC56CC7CC(CC(C7)C5)C6)cc4)CC3)cc(C(C)(C)C)c2)c1` [B2A037-01, N-(1-Adamantylmethylsulfonyl)-4-[4-[3-tert-butyl-5-(3-ethoxyphenyl)benzoyl]piperazin-1-yl]benzamide], under “AS-MS, mixture library, Bcl-2”, the “ASMS ratio (%) n = 1” value is 3.0% and the “ASMS ratio (%) n = 2” value came out at 0.0%. Regarding `CCOc1cccc(-c2cc(OC)c(CN3CCN(c4ccc(C(=O)NS(C)(=O)=O)cc4)CC3)c(OC)c2)c1` [B2I059-01], the “ASMS ratio (%)” value by setting is: (n = 1) 0.0%; (n = 2) 0.0%. As for `CCOc1cncc(-c2cnn(-c3cc(C(=O)N4CCN(c5ccc(C(=O)NS(=O)(=O)c6ccc(NCCSc7ccccc7)c([N+](=O)[O-])c6)cc5)CC4)cc(C(F)(F)F)c3)c2)c1` [B2Q044-01, 4-[4-[3-[4-(5-Ethoxypyridin-3-yl)pyrazol-1-yl]-5-(trifluoromethyl)benzoyl]piperazin-1-yl]-N-[3-nitro-4-(2-phenylsulfanylethylamino)phenyl]sulfonylbenzamide], for the setting “AS-MS, mixture library, Bcl-2”, the “ASMS ratio (%) n = 1” value is on record as 11.0% and the “ASMS ratio (%) n = 2” value is −1.3%. With “6-[4-[3-(5-Ethoxypyridin-3-yl)-5-(trifluoromethyl)benzoyl]piperazin-1-yl]-N-propylpyridazine-3-carboxamide [B1M007-01]”, under setting [2], the “ASMS ratio (%) n = 1” value is recorded as 0.3% and the “ASMS ratio (%) n = 2” value was 0.3%.
